The structures appear in SMILES notation. Converted amounts (≈) assume the structure as drawn.

Common to all, as to experiment: ≥ marks a high value that may be exact or a test limit, other limits are often not marked, values filed in µg/mL are converted to µM
In test [1] the test system is Staphylococcus aureus ATCC 25923.
Test [2] concerns Candida albicans ATCC 90028.
The subject of test [3] is Pseudomonas syringae pv. tabaci.
Test [4] concerns Fusarium solani.
Test [5] relates to Fusarium oxysporum.
The test system of test [6] is Bacillus subtilis ATCC 23857.
Test [7] deals with Pectobacterium carotovorum.
In test [8] the test system is Ramulariopsis gossypii.
The test system of test [9] is Cryptococcus neoformans ATCC 28957.
The test system of test [10] is Trichoderma asperellum.
Test [11] relates to Escherichia coli ATCC 25922.
In test [12] the test system is Fusarium oxysporum f.sp. vasinfectum.
Test [13] has as its system Listeria monocytogenes ATCC 19115.
The test system of test [14] is Staphylococcus aureus CMCC 26003.
Test [15] has as its system Bacillus subtilis CMCC 63501.
The test system of test [16] is Micrococcus luteus AB2010179.
The subject of test [17] is Enterobacter cloacae AB2010162.
The subject of test [18] is Pseudomonas putida.
Test [19] has as its system Staphylococcus aureus AB94004.
For test [20], the system named is Pseudomonas fluorescens.
Test [21] deals with Bacillus magaterium AB90008.
In test [22] the test system is Salmonella enterica AB2010185.
Test [23] deals with Escherichia coli DH5alpha.

As a reminder, the MIC is the smallest concentration in the dilution series that meets the test's criterion for growth inhibition. A lower MIC goes with inhibition by little substance. Consider `CC[C@H](C)[C@H](NC(=O)[C@H](CCCCN)NC(=O)[C@@H](NC(=O)[C@@H](NC(=O)[C@H](CC(N)=O)NC(=O)[C@H](Cc1ccc(O)cc1)NC(=O)[C@H](Cc1ccccc1)NC(=O)[C@@H](N)Cc1ccccc1)C(C)C)[C@@H](C)CC)C(=O)N[C@@H](Cc1ccc(O)cc1)C(=O)NCC(=O)N[C@@H](CC(N)=O)C(=O)N[C@@H](CCSC)C(=O)N[C@@H](C)C(=O)NCC(=O)N[C@@H](CCCN=C(N)N)C(=O)N[C@H](C(=O)N[C@@H](CO)C(=O)N[C@@H](CCCCN)C(N)=O)[C@@H](C)CC` [FFYNVIKIYGNMAGRISK], for which the MIC in test [1] is 128 µM (≈ 271 µg/mL); in test [2] it was no less than 128 µM; in test [3], no less than 128 µM; in [4], no less than 128 µM; in [5], no less than 128 µM; in [6], no less than 64 µM. In addition, the MIC is 16 µM (≈ 33.9 µg/mL) in [7]; no less than 64 µM in test [8]; no less than 32 µM in [9]; no less than 256 µM in test [10]; 128 µM (≈ 271 µg/mL) in test [11]; no less than 128 µM in [12].

As for `CC[C@H](C)[C@H](NC(=O)[C@H](CCCN=C(N)N)NC(=O)[C@H](CCCN=C(N)N)NC(=O)[C@H](CC(C)C)NC(=O)[C@@H](N)Cc1ccccc1)C(=O)N[C@@H](CCCN=C(N)N)C(=O)N[C@H](C(=O)N[C@H](C(=O)N1CCC[C@H]1C(=O)N[C@@H](Cc1c[nH]c2ccccc12)C(=O)N[C@H](C(=O)N[C@@H](CC(N)=O)C(=O)N1CCC[C@H]1C(=O)N1CCC[C@H]1C(=O)N[C@@H](Cc1ccccc1)C(=O)N[C@@H](CC(C)C)C(=O)N[C@@H](CCC(N)=O)C(=O)N[C@@H](CCC(N)=O)C(=O)N[C@H](C(N)=O)[C@@H](C)O)C(C)C)[C@@H](C)O)C(C)C` [FLRRIRVTPWVNPPFLQQT], the MIC in test [13] is no less than 54 µM; in test [14], no less than 108 µM.

Turning to `CC[C@H](C)[C@H](NC(=O)[C@H](CCCN=C(N)N)NC(=O)[C@H](CCCN=C(N)N)NC(=O)[C@H](Cc1c[nH]c2ccccc12)NC(=O)[C@@H](N)Cc1ccccc1)C(=O)N[C@@H](CCCN=C(N)N)C(=O)N[C@H](C(=O)N[C@H](C(=O)N1CCC[C@H]1C(=O)N[C@@H](Cc1c[nH]c2ccccc12)C(=O)N[C@H](C(=O)N[C@@H](CC(N)=O)C(=O)N1CCC[C@H]1C(=O)N1CCC[C@H]1C(=O)N[C@@H](Cc1ccccc1)C(=O)N[C@@H](CC(C)C)C(=O)N[C@@H](CCC(N)=O)C(=O)N[C@@H](CCC(N)=O)C(=O)N[C@H](C(N)=O)[C@@H](C)O)C(C)C)[C@@H](C)O)C(C)C` [FWRRIRVTPWVNPPFLQQT], the minimal inhibitory concentration (MIC) in [13] was 26.2 µM (≈ 64 µg/mL); in test [15], no less than 105 µM; in test [14], 26.2 µM (≈ 64 µg/mL).

In the case of `CC[C@H](C)[C@H](N)C(=O)N[C@@H](CC(C)C)C(=O)NCC(=O)N[C@@H](CCCCN)C(=O)N[C@H](C(=O)N[C@@H](Cc1c[nH]c2ccccc12)C(=O)N[C@@H](CCCCN)C(=O)NCC(=O)N[C@H](C(=O)N[C@@H](CCCCN)C(=O)N[C@@H](CC(N)=O)C(=O)N[C@H](C(=O)N[C@@H](CC(C)C)C(N)=O)[C@@H](C)CC)[C@@H](C)CC)[C@@H](C)CC` [ILGKIWKGIKNIL], the MIC in test [16] was 2 µM (≈ 2.99 µg/mL); in test [17] it was no less than 82 µM; in test [18], 16 µM (≈ 23.9 µg/mL); in [19], 12 µM (≈ 17.9 µg/mL); in test [20] it was no less than 32 µM; in test [21], no less than 50 µM. Besides, the results for the MIC in test [22] and in test [23] were no less than 35 µM and no less than 82 µM, respectively.

For the origin of these results see DBAASP.
